ChEMBL document CHEMBL4312031, “Discovery of candesartan cilexetic as a novel neddylation inhibitor for suppressing tumor growth” (Eur J Med Chem, 2020)
Calls of active or inactive are those of the source. No cut-off for these calls is given here.

Legend:
A549 [1] = assay: Cell cycle arrest in human A549 cells assessed as accumulation at G1 phase at 50 uM measured after 24 hrs by propidium iodide/RNase A staining based flow cytometry analysis (reference value: 63.84 %); type: functional
A549 [2] = assay: Cell cycle arrest in human A549 cells assessed as accumulation at G1 phase at 75 uM measured after 24 hrs by propidium iodide/RNase A staining based flow cytometry analysis (reference value: 63.84 %); type: functional
[3] = target: T1, NEDD8-conjugating enzyme Ubc12 (Homo sapiens) (UniProt P61081); assay: Inhibition of UBC12 in human A549 cells assessed as decrease in Cullin3-Nedd8 adduct level at 50 uM measured after 6 to 12 hrs by Western blot analysis; type: cell-based
T1 sequence (whole entry): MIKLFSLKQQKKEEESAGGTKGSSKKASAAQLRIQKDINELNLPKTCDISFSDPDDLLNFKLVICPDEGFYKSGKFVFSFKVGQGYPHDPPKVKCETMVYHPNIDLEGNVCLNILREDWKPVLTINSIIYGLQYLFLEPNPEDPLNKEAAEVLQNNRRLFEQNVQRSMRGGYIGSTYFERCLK

[4] = target: T1, NEDD8-conjugating enzyme Ubc12 (Homo sapiens); assay: Inhibition of UBC12 in human A549 cells assessed as decrease in Cullin3-Nedd8 adduct level measured after 6 to 12 hrs by Western blot analysis; type: cell-based
[5] = target: T2, Ubiquitin-conjugating enzyme E2 C (Homo sapiens) (UniProt O00762); assay: Inhibition of UbcH10 in human A549 cells assessed as reduction in protein ubiquitination by measuring Ubc10-ub adduct formation at 50 to 100 uM by Western blot analysis; type: cell-based
T2 sequence (whole entry): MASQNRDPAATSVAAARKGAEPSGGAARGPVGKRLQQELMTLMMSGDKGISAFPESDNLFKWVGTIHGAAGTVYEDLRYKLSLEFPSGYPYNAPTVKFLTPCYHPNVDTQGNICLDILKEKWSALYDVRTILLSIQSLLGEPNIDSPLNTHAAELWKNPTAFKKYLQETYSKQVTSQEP

MCF7 = assay: Antiproliferative activity against human MCF7 cells measured after 48 hrs by CCK8 assay; type: functional, cell-based; conditions: MCF7, 48 h
A549 [6] = assay: Cell cycle arrest in human A549 cells assessed as accumulation at G1 phase at 25 uM measured after 24 hrs by propidium iodide/RNase A staining based flow cytometry analysis (reference value: 63.84 %); type: functional
A549 [7] = assay: Cell cycle arrest in human A549 cells assessed as accumulation at G2 phase at 25 uM measured after 24 hrs by propidium iodide/RNase A staining based flow cytometry analysis (reference value: 12.69 %); type: functional
MKN-45 = assay: Antiproliferative activity against human MKN45 cells measured after 48 hrs by CCK8 assay; type: functional, cell-based; conditions: MKN-45, 48 h
[8] = target: T1, NEDD8-conjugating enzyme Ubc12 (Homo sapiens); assay: Inhibition of UBC12 in human A549 cells assessed as decrease in Cullin4a-Nedd8 adduct level measured after 6 to 12 hrs by Western blot analysis; type: cell-based
A549 [9] = assay: Cell cycle arrest in human A549 cells assessed as accumulation at sub-G1 phase at 75 uM measured after 24 hrs by propidium iodide/RNase A staining based flow cytometry analysis (reference value: 0.89 %); type: functional
A549 [10] = assay: Effect on SUMO1 level in human A549 cells by Western blot analysis; type: functional, cell-based
[11] = target: T1, NEDD8-conjugating enzyme Ubc12 (Homo sapiens); assay: Inhibition of UBC12 in human A549 cells assessed as decrease in Cullin4a-Nedd8 adduct level at 50 uM measured after 6 to 12 hrs by Western blot analysis; type: cell-based
HepG2 = assay: Antiproliferative activity against human HepG2 cells measured after 48 hrs by CCK8 assay; type: functional, cell-based; conditions: HepG2, 48 h
[12] = target: T1, NEDD8-conjugating enzyme Ubc12 (Homo sapiens); assay: Inhibition of UBC12 in human A549 cells assessed as decrease in Cullin2-Nedd8 adduct level at 50 uM measured after 6 to 12 hrs by Western blot analysis; type: cell-based
[13] = target: T1, NEDD8-conjugating enzyme Ubc12 (Homo sapiens); assay: Inhibition of UBC12 in human A549 cells assessed as decrease in Cullin1-Nedd8 adduct level measured after 6 to 12 hrs by Western blot analysis; type: cell-based
[14] = target: T1, NEDD8-conjugating enzyme Ubc12 (Homo sapiens); assay: Inhibition of UBC12 in human A549 cells assessed as decrease in Cullin2-Nedd8 adduct level measured after 6 to 12 hrs by Western blot analysis; type: cell-based
A549 [15] = assay: Cell cycle arrest in human A549 cells assessed as accumulation at S phase at 75 uM measured after 24 hrs by propidium iodide/RNase A staining based flow cytometry analysis (reference value: 21.54 %); type: functional
MGC-803 = assay: Antiproliferative activity against human MGC803 cells measured after 48 hrs by CCK8 assay; type: functional, cell-based; conditions: MGC-803, 48 h
A549 [16] = assay: Antitumor activity against human A549 cells xenografted in nude mouse assessed as decrease in tumor weight at 60 mg/kg, ip qd measured after 22 days; type: functional, organism-based
Huh-7 = assay: Antiproliferative activity against human HuH7 cells measured after 48 hrs by CCK8 assay; type: functional, cell-based; conditions: Huh-7, 48 h
A549 [17] = assay: Induction of apoptosis in human A549 cells assessed as increase in PARP cleavage at 50 to 100 uM by Western blot analysis; type: functional, cell-based
PLC = assay: Antiproliferative activity against human PLC cells measured after 48 hrs by CCK8 assay; type: functional, cell-based
[18] = target: NEDD8/NEDD8-conjugating enzyme Ubc12 (Homo sapiens) (UniProt P61081+Q15843); assay: Competitive inhibition of Nedd8-Ubc12 (unknown origin) adduct formation assessed as decrease in Ubc12-Nedd8 adduct formation at 50 uM preincubated for 10 mins followed by ATP addition and measured after 30 mins by immunoblot analysis; type: protein-complex assay
[19] = target: T3, NEDD8-conjugating enzyme UBE2F (Homo sapiens) (UniProt Q969M7); assay: Inhibition of UBE2F in human A549 cells assessed as decrease in Cullin5-Nedd8 adduct level at 50 uM measured after 6 to 12 hrs by Western blot analysis; type: cell-based
T3 sequence (whole entry): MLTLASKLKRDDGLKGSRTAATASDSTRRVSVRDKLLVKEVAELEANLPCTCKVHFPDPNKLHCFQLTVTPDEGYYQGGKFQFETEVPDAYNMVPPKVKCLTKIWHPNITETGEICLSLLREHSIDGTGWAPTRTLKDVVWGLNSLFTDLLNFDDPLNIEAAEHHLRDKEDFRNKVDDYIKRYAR

[20] = target: T4, NEDD8/Cullin-1 (Homo sapiens) (UniProt Q13616+Q15843); assay: Inhibition of Nedd8-cullin1 (unknown origin) assessed as decrease in cullin1-Nedd8 adduct formation at 25 to 50 uM preincubated for 10 mins followed by ATP addition and measured after 30 mins by immunoblot analysis; type: protein assay
T4 sequence (Q13616 whole entry, looked up): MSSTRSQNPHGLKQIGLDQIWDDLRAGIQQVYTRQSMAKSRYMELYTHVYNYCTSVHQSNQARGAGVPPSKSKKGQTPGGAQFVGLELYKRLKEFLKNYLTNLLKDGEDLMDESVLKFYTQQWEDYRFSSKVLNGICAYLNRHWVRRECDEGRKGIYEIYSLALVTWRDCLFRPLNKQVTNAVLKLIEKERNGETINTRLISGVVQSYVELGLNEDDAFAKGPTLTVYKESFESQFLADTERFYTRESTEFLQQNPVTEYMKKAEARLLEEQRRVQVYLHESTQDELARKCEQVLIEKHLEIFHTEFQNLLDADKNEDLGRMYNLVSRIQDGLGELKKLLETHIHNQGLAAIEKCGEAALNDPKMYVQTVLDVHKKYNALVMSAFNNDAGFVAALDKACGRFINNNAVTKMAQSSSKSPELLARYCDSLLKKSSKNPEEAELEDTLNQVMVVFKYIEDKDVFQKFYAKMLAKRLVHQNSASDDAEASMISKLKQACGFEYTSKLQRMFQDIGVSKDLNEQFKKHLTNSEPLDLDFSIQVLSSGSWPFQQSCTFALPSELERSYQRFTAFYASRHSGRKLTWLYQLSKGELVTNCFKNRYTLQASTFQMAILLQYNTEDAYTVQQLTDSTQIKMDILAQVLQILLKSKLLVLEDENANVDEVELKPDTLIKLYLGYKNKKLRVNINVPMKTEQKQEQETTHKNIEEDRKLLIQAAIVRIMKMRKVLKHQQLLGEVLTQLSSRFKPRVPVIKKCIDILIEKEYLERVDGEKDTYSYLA
T4 sequence (Q15843 whole entry, looked up): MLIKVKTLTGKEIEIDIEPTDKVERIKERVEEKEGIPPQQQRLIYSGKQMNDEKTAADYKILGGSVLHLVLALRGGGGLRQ

[21] = target: T4, NEDD8/Cullin-1 (Homo sapiens); assay: Inhibition of Nedd8-cullin1 adduct formation in human A549 cells assessed as decrease in cullin1 neddylation at 100 uM incubated for 6 to 12 hrs by Western blot analysis; type: cell-based
A549 [22] = assay: Induction of apoptosis in human A549 cells assessed as early apoptotic cells at 50 uM measured after 48 hrs by AnnexinV-FITC/propidium iodide staining based FACS analysis (reference value: 2.19 %); type: functional

CCOc1nc2cccc(C(=O)OC(C)OC(=O)OC3CCCCC3)c2n1Cc1ccc(-c2ccccc2-c2nn[nH]n2)cc1 (stereo not drawn) [CANDESARTAN CILEXETIL]
Activity (A549 [1]): 60.18% | Activity (A549 [2]): 40.44% | inhibition [3]: Active | inhibition [4]: Dose-dependent effect | inhibition [5]: inactive | IC50 (MCF7): > 100 µM | Activity (A549 [6]): 63.02% | Activity (A549 [7]): 6.48% | IC50 (MKN-45): 68.9 µM | inhibition [8]: Dose-dependent effect | Activity (A549 [9]): 30.45% | Activity (A549 [10]): inactive | inhibition [11]: Active | IC50 (HepG2): > 100 µM | inhibition [12]: Active | inhibition [13]: Dose-dependent effect | inhibition [14]: Dose-dependent effect | Activity (A549 [15]): 19.74% | IC50 (MGC-803): 57.1 µM | Activity (A549 [16]): Active | IC50 (Huh-7): > 100 µM | Activity (A549 [17]): Active | IC50 (PLC): 60.2 µM | inhibition [18]: Active | inhibition [19]: Active | inhibition [20]: Active | inhibition [21]: Active | Activity (A549 [22]): 11.77%
